Test results taken from ChEMBL document CHEMBL1201862, “PubChem BioAssay data set” (2004).
Active and inactive are the calls of the source.

What was measured:
[1] = molecular target: T1, Eukaryotic translation initiation factor 2-alpha kinase 3 (Homo sapiens, UniProt Q9NZJ5); experiment: Dose response cell-based high-throughput screening assay to measure PERK inhibition. [Related pubchem assays: 1416 ]; assay type: functional
[2] = molecular target: T1, Eukaryotic translation initiation factor 2-alpha kinase 3; experiment: Counterscreen assay for PERK inhibitors: Dose response cell-based high throughput screening assay to measure inhibition of PERK at 6 hours. [Related pubchem assays: 1522, 1416 ]; assay type: functional
[3] = polyadenylation inhibitors in yeast reporter, dose response, luminescence, S. cerevisiae SKY197-pL101 (AID 2525); assay type: functional, cell-based
[4] = Luminescence Cell-Based Dose Confirmation HTS to Identify Inhibitors of Polyadenylation.; assay type: functional
[5] = molecular target: Troponin, cardiac muscle (Homo sapiens, UniProt P19429+P45379+P63316); experiment: Fluorescence-based biochemical high throughput dose response assay for activators of the calcium sensitivity of cardiac Regulated Thin Filaments (RTF). [Related pubchem assays (depositor defined):AID493008, AID493018, AID504382, AID504383]; assay type: protein-complex assay
[6] = HeLa cell cytotoxicity, dose response, cytotoxicity control for MgcRacGAP inhibitor project (AID 624300); assay type: functional
[7] = molecular target: T2, Rac GTPase-activating protein 1 (Homo sapiens, UniProt Q9H0H5); experiment: MgcRacGAP GTPase-activating activity inhibitors, confirmation, biochemical, ADP Hunter fluorescence, primary and confirmatory (AID 624330); assay type: functional
T2 sequence (Q9H0H5 whole entry): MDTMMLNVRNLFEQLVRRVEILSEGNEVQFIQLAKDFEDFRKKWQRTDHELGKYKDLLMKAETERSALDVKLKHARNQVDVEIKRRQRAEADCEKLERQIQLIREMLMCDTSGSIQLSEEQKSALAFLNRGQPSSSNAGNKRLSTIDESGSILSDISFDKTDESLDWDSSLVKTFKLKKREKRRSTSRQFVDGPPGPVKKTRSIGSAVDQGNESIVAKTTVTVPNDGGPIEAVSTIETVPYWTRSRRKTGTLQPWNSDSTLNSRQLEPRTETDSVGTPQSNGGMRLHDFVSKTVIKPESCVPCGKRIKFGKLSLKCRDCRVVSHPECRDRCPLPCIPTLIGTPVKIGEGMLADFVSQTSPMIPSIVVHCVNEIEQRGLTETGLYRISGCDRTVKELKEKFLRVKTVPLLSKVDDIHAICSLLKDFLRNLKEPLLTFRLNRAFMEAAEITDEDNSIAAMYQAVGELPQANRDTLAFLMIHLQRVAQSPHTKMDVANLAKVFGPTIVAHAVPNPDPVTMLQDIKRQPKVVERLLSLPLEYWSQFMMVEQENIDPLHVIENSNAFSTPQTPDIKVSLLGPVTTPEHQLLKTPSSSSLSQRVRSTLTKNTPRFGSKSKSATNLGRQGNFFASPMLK

[8] = molecular target: Lysosomal acid glucosylceramidase (Homo sapiens, UniProt P04062); experiment: Dose response cell-based high throughput screening assay to identify enhancers of beta-glucosidase activity. [Related pubchem assays: 784 ]; assay type: functional
[9] = molecular target: T3, Histone-lysine N-methyltransferase NSD2 (Homo sapiens, UniProt O96028); assay type: biochemical
T3 sequence (O96028 whole entry): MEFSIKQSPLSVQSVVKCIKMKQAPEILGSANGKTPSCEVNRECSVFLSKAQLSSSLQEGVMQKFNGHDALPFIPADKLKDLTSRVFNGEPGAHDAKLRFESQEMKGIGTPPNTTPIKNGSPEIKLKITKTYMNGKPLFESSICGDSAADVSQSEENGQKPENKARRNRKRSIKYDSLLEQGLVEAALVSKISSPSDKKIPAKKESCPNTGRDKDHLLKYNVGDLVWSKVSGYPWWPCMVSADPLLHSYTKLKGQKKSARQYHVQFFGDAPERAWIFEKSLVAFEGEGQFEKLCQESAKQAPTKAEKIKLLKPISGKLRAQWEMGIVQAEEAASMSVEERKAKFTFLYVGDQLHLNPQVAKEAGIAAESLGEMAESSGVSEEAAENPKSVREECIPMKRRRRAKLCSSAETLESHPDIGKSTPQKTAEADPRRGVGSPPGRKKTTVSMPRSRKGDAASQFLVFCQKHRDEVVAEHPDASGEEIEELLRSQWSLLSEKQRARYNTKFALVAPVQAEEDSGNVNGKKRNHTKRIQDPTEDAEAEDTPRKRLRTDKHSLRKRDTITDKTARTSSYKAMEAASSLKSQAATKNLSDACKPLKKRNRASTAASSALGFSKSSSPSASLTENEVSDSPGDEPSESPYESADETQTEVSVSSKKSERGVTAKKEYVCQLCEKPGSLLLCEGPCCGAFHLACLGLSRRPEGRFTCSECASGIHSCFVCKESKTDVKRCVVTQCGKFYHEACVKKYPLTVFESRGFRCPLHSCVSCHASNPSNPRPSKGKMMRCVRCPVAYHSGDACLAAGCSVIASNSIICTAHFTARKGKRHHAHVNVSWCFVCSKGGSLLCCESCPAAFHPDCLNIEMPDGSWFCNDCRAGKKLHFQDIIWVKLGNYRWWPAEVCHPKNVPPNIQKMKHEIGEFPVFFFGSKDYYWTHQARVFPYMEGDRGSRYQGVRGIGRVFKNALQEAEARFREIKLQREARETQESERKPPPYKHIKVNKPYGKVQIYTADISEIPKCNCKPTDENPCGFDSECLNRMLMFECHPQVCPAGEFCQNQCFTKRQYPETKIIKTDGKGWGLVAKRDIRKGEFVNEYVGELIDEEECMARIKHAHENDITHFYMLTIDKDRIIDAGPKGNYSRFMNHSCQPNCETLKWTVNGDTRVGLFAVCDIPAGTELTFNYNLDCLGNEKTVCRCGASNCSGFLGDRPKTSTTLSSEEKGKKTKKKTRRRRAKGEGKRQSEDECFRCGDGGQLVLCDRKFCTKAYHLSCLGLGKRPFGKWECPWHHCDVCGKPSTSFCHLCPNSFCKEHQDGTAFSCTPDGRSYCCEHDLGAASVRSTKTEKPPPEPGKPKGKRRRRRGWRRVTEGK

[10] = molecular target: Guanyl-specific ribonuclease T1 (Aspergillus oryzae (strain ATCC 42149 / RIB 40), UniProt P00651); experiment: RNase T1 inhibitors, dose response, counter-screen for TPT1 inhibitor project, biochemical, fluorescence polarization, 1536-well (AID 2167)
[11] = molecular target: T4, Voltage-gated N-type calcium channel alpha-1B subunit/Amyloid beta A4 precursor protein-binding family A member 1 (Homo sapiens, UniProt Q00975+Q02410); assay type: protein assay
[12] = molecular target: Large T antigen (Simian virus 40, UniProt P03070); assay type: functional, Betapolyomavirus macacae;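 also: Confirmatory-stage PubChem screen for compounds that inhibit SV40 T antigen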
[13] = molecular target: Likely tRNA 2'-phosphotransferase (Candida albicans (strain SC5314 / ATCC MYA-2876) (Yeast), UniProt Q5A7N4); experiment: TPT1 tRNA phosphotransferase inhibitors, dose response, biochemical, fluorescence polarization (AID 2160)
[14] = molecular target: T4, Voltage-gated N-type calcium channel alpha-1B subunit/Amyloid beta A4 precursor protein-binding family A member 1; assay type: protein assay; remark: listed apart in the source
[15] = molecular target: Eukaryotic translation initiation factor 4H (Homo sapiens, UniProt Q15056); experiment: human eIF4H binding inhibitors, primary screen, translation initiation inhibitor project, biochemical, uHTS, fluorescence polarization (AID 2012)
[16] = molecular target: Polyadenylate-binding protein 1 (Homo sapiens, UniProt P11940); experiment: PABP poly(A) RNA binding inhibitors, primary screen, biochemical, fluorescence polarization, uHTS (AID 2014)
[17] = molecular target: DNA dC->dU-editing enzyme APOBEC-3A (Homo sapiens, UniProt P31941); experiment: Dose Response confirmation of small molecule APOBEC3A DNA Deaminase Inhibitors via a fluorescence-based single-stranded DNA deaminase assay. [Related pubchem assays (depositor defined):AID493011, AID493024]; assay type: functional
[18] = molecular target: DNA dC->dU-editing enzyme APOBEC-3G (Homo sapiens, UniProt Q9HC16); assay type: functional;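 also: Dose-response counterscreen measuring inhibition of APOBEC3G DNA deaminase activity, run while confirming APOBEC3A inhibitors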
[19] = molecular target: Aspartyl aminopeptidase (Plasmodium falciparum 3D7, UniProt Q8I2J3)
[20] = molecular target: Procathepsin L (Homo sapiens, UniProt P07711)
[21] = molecular target: T5, Alkaline phosphatase, tissue-nonspecific isozyme (Homo sapiens, UniProt P05186)
T5 sequence (P05186 whole entry): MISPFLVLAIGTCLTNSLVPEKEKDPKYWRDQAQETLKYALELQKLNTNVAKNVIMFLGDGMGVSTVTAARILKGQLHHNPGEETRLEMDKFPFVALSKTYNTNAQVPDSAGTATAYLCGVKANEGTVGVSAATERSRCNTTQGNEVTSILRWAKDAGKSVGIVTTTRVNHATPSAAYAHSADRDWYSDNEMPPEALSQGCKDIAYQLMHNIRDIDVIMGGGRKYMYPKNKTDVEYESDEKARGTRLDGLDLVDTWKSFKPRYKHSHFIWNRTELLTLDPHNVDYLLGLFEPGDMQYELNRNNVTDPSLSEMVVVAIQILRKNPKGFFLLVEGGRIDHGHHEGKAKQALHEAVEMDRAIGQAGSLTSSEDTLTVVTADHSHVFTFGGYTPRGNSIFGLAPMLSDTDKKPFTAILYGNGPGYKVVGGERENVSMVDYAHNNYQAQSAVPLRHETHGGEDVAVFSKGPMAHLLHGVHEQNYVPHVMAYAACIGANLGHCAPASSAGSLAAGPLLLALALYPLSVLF

[22] = molecular target: Photoreceptor-specific nuclear receptor (Homo sapiens, UniProt Q9Y5X4); assay type: functional;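 also: potency for compounds that break the NR2E3 corepressor complex and count as activators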
[23] = molecular target: Peroxisome proliferator-activated receptor gamma/Nuclear receptor corepressor 2 (Homo sapiens, UniProt P37231+Q9Y618); assay type: functional
[24] = molecular target: Cytochrome P450 2D6 (Homo sapiens, UniProt P10635); experiment: qHTS Assay for Inhibitors and Substrates of Cytochrome P450 2D6. [Related pubchem assays: 410 ]; assay type: ADME; details: read-out: Potency

T1 sequence (Q9NZJ5 whole entry): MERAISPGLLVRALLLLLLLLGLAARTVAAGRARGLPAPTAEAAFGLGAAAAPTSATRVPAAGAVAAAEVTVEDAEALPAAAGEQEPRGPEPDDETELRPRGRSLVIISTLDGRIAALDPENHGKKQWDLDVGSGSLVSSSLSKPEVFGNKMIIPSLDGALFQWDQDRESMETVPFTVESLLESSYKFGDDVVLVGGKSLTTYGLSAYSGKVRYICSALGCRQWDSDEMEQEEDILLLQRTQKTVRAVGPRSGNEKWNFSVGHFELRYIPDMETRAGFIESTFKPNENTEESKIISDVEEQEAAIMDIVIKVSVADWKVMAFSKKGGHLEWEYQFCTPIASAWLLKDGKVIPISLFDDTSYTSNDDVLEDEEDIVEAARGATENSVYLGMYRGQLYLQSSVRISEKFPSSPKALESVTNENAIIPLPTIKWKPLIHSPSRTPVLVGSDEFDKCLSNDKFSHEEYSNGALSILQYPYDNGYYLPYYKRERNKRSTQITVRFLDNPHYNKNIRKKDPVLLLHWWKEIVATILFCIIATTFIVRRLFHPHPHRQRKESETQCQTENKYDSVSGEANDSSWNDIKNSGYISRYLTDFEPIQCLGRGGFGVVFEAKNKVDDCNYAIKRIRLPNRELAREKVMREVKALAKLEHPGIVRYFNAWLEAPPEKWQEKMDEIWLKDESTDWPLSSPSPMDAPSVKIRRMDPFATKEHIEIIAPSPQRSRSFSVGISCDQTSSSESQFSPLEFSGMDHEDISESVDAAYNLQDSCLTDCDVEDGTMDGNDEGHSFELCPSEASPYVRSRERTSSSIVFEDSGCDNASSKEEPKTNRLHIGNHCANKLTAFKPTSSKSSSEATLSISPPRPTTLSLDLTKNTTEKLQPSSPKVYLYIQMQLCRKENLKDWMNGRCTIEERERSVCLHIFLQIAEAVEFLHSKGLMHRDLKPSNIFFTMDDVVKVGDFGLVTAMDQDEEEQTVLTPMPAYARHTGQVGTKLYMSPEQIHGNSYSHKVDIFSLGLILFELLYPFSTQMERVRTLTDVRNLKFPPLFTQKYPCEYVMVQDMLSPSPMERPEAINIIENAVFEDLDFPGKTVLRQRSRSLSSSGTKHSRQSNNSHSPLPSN
T4 sequence (Q00975 whole entry): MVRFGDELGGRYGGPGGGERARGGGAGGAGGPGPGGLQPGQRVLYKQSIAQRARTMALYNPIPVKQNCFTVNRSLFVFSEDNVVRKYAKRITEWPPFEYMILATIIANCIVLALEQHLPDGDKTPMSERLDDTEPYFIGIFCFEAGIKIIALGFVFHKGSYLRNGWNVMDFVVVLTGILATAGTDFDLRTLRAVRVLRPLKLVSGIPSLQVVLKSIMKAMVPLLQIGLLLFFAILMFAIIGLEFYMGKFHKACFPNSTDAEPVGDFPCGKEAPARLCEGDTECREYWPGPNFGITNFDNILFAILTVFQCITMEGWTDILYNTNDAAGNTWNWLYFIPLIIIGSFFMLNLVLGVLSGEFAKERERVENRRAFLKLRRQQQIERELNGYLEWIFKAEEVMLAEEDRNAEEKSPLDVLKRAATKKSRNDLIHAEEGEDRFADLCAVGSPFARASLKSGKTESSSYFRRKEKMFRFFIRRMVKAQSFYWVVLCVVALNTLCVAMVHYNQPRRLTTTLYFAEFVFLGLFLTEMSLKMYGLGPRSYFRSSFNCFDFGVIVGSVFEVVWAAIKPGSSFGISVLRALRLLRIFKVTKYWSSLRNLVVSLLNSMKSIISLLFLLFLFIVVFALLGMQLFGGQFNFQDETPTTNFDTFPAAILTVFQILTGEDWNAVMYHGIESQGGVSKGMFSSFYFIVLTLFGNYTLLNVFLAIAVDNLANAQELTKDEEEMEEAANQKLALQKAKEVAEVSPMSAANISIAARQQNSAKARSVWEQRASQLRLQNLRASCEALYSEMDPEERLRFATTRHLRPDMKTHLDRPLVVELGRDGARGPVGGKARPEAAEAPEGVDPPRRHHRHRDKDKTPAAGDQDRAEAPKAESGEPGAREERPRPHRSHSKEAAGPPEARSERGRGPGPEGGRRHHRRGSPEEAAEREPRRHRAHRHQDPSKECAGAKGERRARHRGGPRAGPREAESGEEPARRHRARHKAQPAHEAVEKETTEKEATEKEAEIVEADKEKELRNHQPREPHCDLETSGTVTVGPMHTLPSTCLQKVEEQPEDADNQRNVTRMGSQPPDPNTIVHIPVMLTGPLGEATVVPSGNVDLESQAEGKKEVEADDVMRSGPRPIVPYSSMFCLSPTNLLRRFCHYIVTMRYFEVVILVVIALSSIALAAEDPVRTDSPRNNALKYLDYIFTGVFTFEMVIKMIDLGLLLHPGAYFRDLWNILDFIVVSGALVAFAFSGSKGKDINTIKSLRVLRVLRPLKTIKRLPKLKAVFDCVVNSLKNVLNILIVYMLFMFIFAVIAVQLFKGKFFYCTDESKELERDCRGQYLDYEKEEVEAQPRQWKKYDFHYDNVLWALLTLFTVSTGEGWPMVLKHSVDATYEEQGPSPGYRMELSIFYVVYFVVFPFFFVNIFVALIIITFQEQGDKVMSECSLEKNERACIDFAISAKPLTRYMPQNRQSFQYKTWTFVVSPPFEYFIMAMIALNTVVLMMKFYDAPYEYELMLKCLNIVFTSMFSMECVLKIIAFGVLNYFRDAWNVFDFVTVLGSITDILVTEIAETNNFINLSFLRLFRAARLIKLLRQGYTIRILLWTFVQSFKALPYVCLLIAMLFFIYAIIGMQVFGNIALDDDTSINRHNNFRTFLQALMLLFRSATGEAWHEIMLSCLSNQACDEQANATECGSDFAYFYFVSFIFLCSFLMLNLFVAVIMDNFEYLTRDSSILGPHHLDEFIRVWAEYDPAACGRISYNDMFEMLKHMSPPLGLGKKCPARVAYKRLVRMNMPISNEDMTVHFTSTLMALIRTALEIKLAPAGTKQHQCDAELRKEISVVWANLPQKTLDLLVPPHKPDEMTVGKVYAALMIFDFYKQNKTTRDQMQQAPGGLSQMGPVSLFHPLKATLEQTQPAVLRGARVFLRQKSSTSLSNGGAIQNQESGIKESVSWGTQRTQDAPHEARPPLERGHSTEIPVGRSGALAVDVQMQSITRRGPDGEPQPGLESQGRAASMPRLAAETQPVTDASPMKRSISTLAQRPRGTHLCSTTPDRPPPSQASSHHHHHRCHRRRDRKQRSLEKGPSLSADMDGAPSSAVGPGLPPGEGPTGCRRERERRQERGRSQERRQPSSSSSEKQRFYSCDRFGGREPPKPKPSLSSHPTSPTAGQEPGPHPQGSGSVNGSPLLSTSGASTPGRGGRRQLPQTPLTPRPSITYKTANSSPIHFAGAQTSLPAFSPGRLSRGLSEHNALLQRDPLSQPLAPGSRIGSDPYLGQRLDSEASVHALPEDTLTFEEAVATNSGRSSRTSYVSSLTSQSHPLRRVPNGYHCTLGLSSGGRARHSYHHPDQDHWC
T4 sequence (Q02410 whole entry): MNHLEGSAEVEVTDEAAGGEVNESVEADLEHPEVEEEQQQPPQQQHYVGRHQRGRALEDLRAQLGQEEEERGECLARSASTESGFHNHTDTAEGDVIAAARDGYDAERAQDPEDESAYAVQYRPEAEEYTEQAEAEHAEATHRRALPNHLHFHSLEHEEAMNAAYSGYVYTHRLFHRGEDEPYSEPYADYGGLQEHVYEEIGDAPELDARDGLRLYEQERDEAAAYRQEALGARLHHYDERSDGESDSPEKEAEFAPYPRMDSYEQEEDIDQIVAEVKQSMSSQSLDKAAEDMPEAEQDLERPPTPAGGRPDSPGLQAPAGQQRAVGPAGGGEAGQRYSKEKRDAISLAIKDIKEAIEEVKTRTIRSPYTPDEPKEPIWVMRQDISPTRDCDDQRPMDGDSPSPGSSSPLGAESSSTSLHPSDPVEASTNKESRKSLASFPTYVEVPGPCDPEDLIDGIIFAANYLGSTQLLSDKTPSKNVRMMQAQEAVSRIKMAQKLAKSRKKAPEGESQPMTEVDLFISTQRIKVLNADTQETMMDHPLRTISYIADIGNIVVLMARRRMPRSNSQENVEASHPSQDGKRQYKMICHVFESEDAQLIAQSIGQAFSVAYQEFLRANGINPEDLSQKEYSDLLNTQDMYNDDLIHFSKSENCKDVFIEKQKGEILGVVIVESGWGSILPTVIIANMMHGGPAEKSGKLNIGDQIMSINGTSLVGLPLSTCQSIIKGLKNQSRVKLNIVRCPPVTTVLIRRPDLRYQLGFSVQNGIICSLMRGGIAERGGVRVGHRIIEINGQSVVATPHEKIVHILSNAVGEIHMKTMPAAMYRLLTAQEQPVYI
Chain of Guanyl-specific ribonuclease T1 (P00651 whole entry): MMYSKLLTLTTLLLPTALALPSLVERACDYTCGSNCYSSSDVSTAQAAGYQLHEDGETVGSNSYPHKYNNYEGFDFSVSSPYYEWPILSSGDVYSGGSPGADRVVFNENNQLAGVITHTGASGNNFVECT
Chain of Large T antigen (P03070 whole entry): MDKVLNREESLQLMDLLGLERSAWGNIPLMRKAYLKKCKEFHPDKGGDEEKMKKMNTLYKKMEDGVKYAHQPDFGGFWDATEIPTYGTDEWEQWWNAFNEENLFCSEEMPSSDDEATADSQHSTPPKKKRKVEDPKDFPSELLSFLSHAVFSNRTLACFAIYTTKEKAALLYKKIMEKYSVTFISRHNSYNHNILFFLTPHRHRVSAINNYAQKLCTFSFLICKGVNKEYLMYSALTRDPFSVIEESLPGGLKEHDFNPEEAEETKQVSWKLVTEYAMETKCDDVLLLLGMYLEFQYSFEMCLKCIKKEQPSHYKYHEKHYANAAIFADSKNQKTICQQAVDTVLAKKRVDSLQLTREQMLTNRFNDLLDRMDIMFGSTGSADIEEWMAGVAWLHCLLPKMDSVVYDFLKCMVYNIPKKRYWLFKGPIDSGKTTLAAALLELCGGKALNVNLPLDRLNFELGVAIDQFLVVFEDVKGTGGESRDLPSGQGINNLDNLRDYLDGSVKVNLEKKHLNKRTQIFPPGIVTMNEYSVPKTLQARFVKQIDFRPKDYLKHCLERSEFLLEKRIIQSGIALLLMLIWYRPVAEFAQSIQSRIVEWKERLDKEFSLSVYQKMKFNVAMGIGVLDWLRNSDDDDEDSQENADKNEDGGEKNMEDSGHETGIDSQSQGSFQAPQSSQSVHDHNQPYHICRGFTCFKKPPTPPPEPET

## CC(=O)c1ccc(S(=O)(=O)N2CCN(CC#N)CC2)cc1
[1]
  EC50: > 55.7 µM (not active)
[2]
  EC50: > 55.7 µM (not active)

## CCOc1cc(/C=C2\N=C(SC(C)C(N)=O)N(c3ccc(OC(F)F)cc3)C2=O)ccc1O (centres undefined)
[3]
  EC50: 19.4 µM (active)
[4]
  EC50: 10.7 µM (active)
[5]
  EC50: 8.42 µM (active)
[6]
  CC50: 51.2 µM (active)
[7]
  IC50: 91.2 µM (active)

## CCN(CC)CCCNC(=O)c1cc(-c2cccc(Cl)c2)on1
[8]
  EC50: > 50 µM (not active)
[9]
  AC50: > 20 µM (inactive)

## CC1=C(C#N)C(=O)N(C2CCS(=O)(=O)C2)C(=O)/C1=C\c1ccco1 (centres undefined)
[10]
  IC50: > 55.7 µM (not active)
[11]
  IC50: > 56.8 µM (not active)
[12]
  IC50: 7.93 µM (active)
[13]
  IC50: 0.142 µM (active)
[14]
  IC50: 4.68 µM (active)

## COCCN1C(NCCCOC(C)C)=N[C@@H](c2ccccc2)C(C(=O)OC)=C1C
[15]
  IC50: > 100 µM (inactive)
[16]
  IC50: 8.01 µM (active)
[17]
  IC50: 5.67 µM (active)
[18]
  IC50: 4.32 µM (active)

## O=C(Nn1cnnc1)c1csc2ccccc12
[19]
  IC50: 2.17 µM (active)
[20]
  IC50: > 59.6 µM (not active)

## Fc1ccccc1N1CC(c2ccccc2)C(c2cccs2)=N1 (centres undefined)
[21]
  EC50: > 100 µM (not active)

## COc1cccc2cc(C(=O)C3=C(O)C(=O)N(CCN4CCOCC4)C3c3cccs3)oc12 (centres undefined)
[22]
  IC50: > 39.8 µM (not active)
[23]
  IC50: 13.7 µM (not active)

## CC12C=C(/C=C/c3ccc(Br)cc3)C(C)(C1)C(c1ccc(Br)cc1)CC2=O (centres undefined)
[24]
  AC50: 7.94 µM (inconclusive)
